We go through four molecules from BindingDB's records for doi:10.1074/jbc.M114.558353 (Harvard School of Public Health, 2014).

Experiment [1] concerns the target Dihydroorotate dehydrogenase (quinone), mitochondrial (Homo sapiens, UniProt Q02127). Nature of the experiment: DHODH Biochemical Assay.
The target in experiment [2] is T1, Dihydroorotate dehydrogenase (quinone), mitochondrial (Plasmodium falciparum (isolate 3D7), UniProt Q08210).
T1 sequence (Q08210 whole entry): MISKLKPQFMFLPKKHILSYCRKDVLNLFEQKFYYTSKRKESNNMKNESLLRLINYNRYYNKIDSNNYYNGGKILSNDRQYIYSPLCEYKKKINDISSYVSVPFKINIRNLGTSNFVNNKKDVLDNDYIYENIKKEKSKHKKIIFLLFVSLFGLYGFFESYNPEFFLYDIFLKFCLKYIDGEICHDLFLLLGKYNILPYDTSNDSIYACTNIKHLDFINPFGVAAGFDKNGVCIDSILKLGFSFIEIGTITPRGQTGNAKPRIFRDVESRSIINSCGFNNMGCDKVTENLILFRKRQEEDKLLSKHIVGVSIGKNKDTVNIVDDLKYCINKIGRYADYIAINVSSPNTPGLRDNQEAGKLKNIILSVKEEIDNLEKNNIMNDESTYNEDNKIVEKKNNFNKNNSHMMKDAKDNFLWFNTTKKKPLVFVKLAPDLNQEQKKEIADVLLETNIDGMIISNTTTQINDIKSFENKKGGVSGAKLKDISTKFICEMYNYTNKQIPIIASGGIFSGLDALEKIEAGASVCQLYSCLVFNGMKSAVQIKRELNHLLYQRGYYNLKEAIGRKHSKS
Kind of experiment: DHODH Biochemical Assay.

Some results are limits rather than exact numbers.

As usually defined, the IC50 is the concentration at which inhibition is half-maximal.

Sequence of Dihydroorotate dehydrogenase (quinone), mitochondrial (Homo sapiens, UniProt Q02127) (Q02127 whole entry): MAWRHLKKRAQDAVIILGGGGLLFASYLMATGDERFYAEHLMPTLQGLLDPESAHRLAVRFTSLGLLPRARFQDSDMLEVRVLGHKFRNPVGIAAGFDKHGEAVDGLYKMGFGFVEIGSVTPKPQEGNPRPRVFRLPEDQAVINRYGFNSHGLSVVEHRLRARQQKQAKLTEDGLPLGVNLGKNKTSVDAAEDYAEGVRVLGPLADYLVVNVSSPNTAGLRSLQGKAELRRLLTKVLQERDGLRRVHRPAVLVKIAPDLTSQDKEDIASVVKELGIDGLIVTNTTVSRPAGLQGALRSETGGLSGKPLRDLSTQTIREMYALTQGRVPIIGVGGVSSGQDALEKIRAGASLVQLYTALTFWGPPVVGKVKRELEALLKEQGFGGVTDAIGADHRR

In the case of `Cc1nc2c(C#N)cccc2n1-c1ccc(C(=O)NC2CC2)s1`, the figures for the IC50 in experiment [1] and in experiment [2] were over 30 µM and 80 nM, respectively.
Take `CCSc1nnc(C2CCCN(CC(=O)Nc3cc(C(F)(F)F)ccc3Cl)C2)n1CC` (stereo not drawn) [GSK3]: the values for the IC50 in experiment [1] and in experiment [2] were over 30 µM and 1700 nM, respectively.
The corresponding values for `Cc1nnc2c3ccccc3c(N3CCc4ccccc4C3)nn12` [IDI-6253] are 3.8 µM and 3500 nM.
Take `CCOc1cccc(=O)c2c(C)n(Cc3ccc(Cl)cc3)c(C)c12` [IDI-6273]: the IC50 in experiment [1] was over 30 µM; in experiment [2], 13500 nM.
